Source: patent US12280090B2, “Antimicrobial peptides” (priority 2018, dated 2025)
≈ marks a conversion by molar mass, not a printed value. Where two headings read alike, the source gives them in different places. Ends that are not written are not given here. Peptide text beside a SMILES is read from it.

Legend:
Format in all cases: cell-based
[1] = system: Streptococcus pyogenes: unknown strain, hospital isolate; settings: unknown strain, hospital isolate
Protocol: (§1) Microtiter broth dilution assays. HP2, HP3, and HP5 peptides are comprised of novel sequences that have not yet been described in the AMP literature. A common method for establishing antimicrobial activity of peptides is to perform microtiter broth assays. Microtiter broth dilution methods were implemented for determination of the minimum inhibitory concentration (MIC) and minimum bactericidal concentration (MBC). HP3 and HP5 were tested in addition to Ranatuerin-1/HP4 peptide as a positive control. HP2 could not be tested because multiple peptide synthesis attempts failed. The human cathelicidin, LL-37^30 was used as an additional positive control, and an unrelated similarly sized cationic peptide from the T. pallidum protein Tp0751 was used as a negative control. The potential AMPs were tested against bacteria representative of all three types of known cell envelope (Gram-positive, negative, and the complex and unique mycobacterial cell wall/envelope), given that a major mechanism used by AMPs is cell wall/membrane targeting.
(§2) Microtiter broth dilution assays. To test for antimicrobial activity, HP3, HP4/Ranatuerin-1, and HP5, peptides were synthesized by GenScript (Piscataway, New Jersey, USA). HP2 was not tested because the service provider was unable to synthesize this peptide despite multiple attempts. An unrelated, similarly-sized peptide from the Treponema pallidum protein Tp0751^55 was used as a negative control and the human cathelicidin, LL-37^30, was included as a positive control. Peptides were dissolved in filter-sterilized ultrapure water and tested for sterility by plating on non-selective agar plates followed by a 48 h incubation at 37° C. Two-fold serial dilutions of each peptide were prepared to obtain a series corresponding to ten times the required testing concentrations (2560, 1280, 640, 320, 160, 80, 40, 20, 10, and 5 μg/mL)^29.
(§3) Microtiter broth dilution methods were implemented for determination of the minimum inhibitory concentration (MIC) and minimum bactericidal concentration (MBC) of the four putative AMPs and the negative control peptide using procedures adapted from the R.E.W. Hancock Laboratory for cationic AMPs^29 and the CLSI methods for dilution antimicrobial susceptibility tests^56.
(§4) To assess antimicrobial activity across a diverse range of bacterial species, colonies were cultured overnight on Mueller Hinton agar plates (MHA; +5% sheep blood for S. pyogenes)^56 from frozen glycerol stock. Bacteria tested include Gram-negative rods (Escherichia coli: ATCC 9723H; Pseudomonas aeruginosa: ATCC 10148), Gram-positive cocci (Staphylococcus aureus: ATCC 6538P; Streptococcus pyogenes: unknown strain, hospital isolate), and Mycobacterium smegmatis (MC^2155; classified as neither Gram-positive nor Gram-negative). Bacterial suspensions were prepared by placing 3-5 morphologically similar colonies from the grown plate into sterile glass culture tubes containing 2 mL of Mueller Hinton Broth (MHB; +5% lysed horse blood for S. pyogenes) 56. Microbial inoculums from bacterial suspensions were prepared through a spectrophotometric adjustment of turbidity to 0.08-0.1 at 600 nm to achieve a turbidity equivalent to that of a 0.5 McFarland standard (1-2×10^8 CFU/mL)^29. The standardized bacterial inoculums were then diluted in MHB to obtain final cell densities of approximately […].
(§5) Ninety-six-well microtiter plates (Fisher Cat. No. CS003790; Nepean, Ontario, Canada) were prepared with 100 μL of E. coli, P. aeruginosa, S. aureus, S. pyogenes, or M. smegmatis bacterial suspension (5×10^5 CFU/mL) dispensed into each well of columns 1 through 11. Eleven microliters of the 10×AMP dilution series for all four peptides were added to each well from column 1 (2560 μg/mL) to column 10 (5 μg/mL) in all plates. Column 11 functioned as a positive control for bacterial growth in the absence of AMPs. Column 12 in each plate contained 100 μL of MHB as a sterility control (+5% lysed horse blood for S. pyogenes)^56. […]

[2] = system: Escherichia coli: ATCC 9723H; settings: ATCC 9723
Protocol: as §1, §2, §3, §4, §5

[3] = system: Pseudomonas aeruginosa: ATCC 10148; settings: ATCC 10148
Protocol: as §1, §2, §3, §4, §5

[4] = system: Mycobacterium smegmatis (MC^2155); settings: Mycobacterium (MC^2155)
Protocol: as §1, §2, §3, §4, §5

[5] = system: Staphylococcus aureus: ATCC 6538P; settings: ATCC 6538
Protocol: as §1, §2, §3, §4, §5

[6] = system: Escherichia coli—ATCC 25922 “wild type”
Protocol: (§6) Independent experiments were conducted with four strains of E. coli, including ATCC E. coli (Escherichia coli—ATCC 25922 “wild type”); ESBL E. coli (Escherichia coli—Extended spectrum beta-lactamase); CPO E. coli (KPC) (Escherichia coli—Carbapenemase-producing organism; Klebsiella pneumoniae carbapenemase); and CPO E. coli (NDM) (Escherichia coli—Carbapenemase-producing organism; New-Dehli Metallobetalactamase).
(§7) The ATCC (American Type Culture Collection) strains received from Cedarlane. Multi drug resistant (MDR) strains, as clinical isolates, were received from the laboratory of Dr. Linda Hoang.
(§8) Putative antimicrobial peptides were synthesized by GeneScript. A-list antimicrobial peptides re-synthesized by GeneScript. P2_CCH, P5_CCH, and P5_CCH_A19K were each synthesized under two conditions: standard synthesis using TFA, and the other with TFA-removal using acetate as a counter-ion. A MIC method, adapted for use with cationic antimicrobial peptides, was used to evaluate MIC antimicrobial activity (Hancock 1999).
(§9) The following data are presented to show the activity (MIC/MBC in μg/mL) of certain antimicrobial peptides described herein relative to a modified/synthetic version having a specified substitution. While data presented in tables above may be presented again, or may be represented in data provided in the tables below, such duplication is believed to assist the reader in readily noting comparisons. Different Run Numbers noted in the following tables denotes experiments conducted on different days, with each run reflecting multiple n values.

[7] = system: Escherichia coli—Carbapenemase-producing organism; Klebsiella pneumoniae carbapenemase
Protocol: as §6, §7, §8, §9

[8] = system: Escherichia coli—Carbapenemase-producing organism; New-Dehli Metallobetalactamase
Protocol: as §6, §7, §8, §9

[9] = system: Escherichia coli—Extended spectrum beta-lactamase
Protocol: as §6, §7, §8, §9

[10] = system: Salmonella Heidelberg (MDR)
Description: as §7, §8, §9

[11] = system: Staphylococcus aureus—ATCC 29213 “wild type”; settings: for MIC: ATCC 29213
Protocol: Independent experiments were conducted with different strains of Staphylococcus aureus—ATCC 29213 “wild type”; and Staphylococcus aureus—Methicillin resistant Staphylococcus aureus.
as §7, §8, §9

[12] = system: Salmonella Enteritidis
Description: as §8, §9

| Compound | MBC [1] [µg/mL] | MIC [1] [µg/mL] | MBC [2] [µg/mL] | MIC [2] [µg/mL] | MBC [3] [µg/mL] | MIC [3] [µg/mL] | MBC [4] [µg/mL] | MIC [4] [µg/mL] | MBC [5] [µg/mL] | MIC [5] [µg/mL] | Minimum Inhibitory Concentration (MIC) [6] [µg/mL] | MBC [7] [µg/mL] | MIC [7] [µg/mL] | Minimum Inhibitory Concentration (MIC) [7] [µg/mL] | Minimum Inhibitory Concentration (MIC) [8] [µg/mL] | Minimum Inhibitory Concentration (MIC) [9] [µg/mL] | MIC [10] [µg/mL] | MIC [11] [µg/mL] | MIC [12] [µg/mL] | MBC [9] [µg/mL] | further results |
| --- | --- | --- | --- | --- | --- | --- | --- | --- | --- | --- | --- | --- | --- | --- | --- | --- | --- | --- | --- | --- | --- |
| CC[C@H](C)[C@H](NC(=O)[C@H](CCCCN)NC(=O)[C@@H](NC(=O)[C@H](C)NC(=O)[C@H](Cc1ccccc1)NC(=O)[C@H](CC(=O)O)NC(=O)[C@H](CCCCN)NC(=O)CNC(=O)[C@@H](NC(=O)[C@@H](NC(=O)[C@H](CCCCN)NC(=O)[C@@H](NC(=O)[C@@H](NC(=O)[C@H](CC(=O)O)NC(=O)[C@H](CC(C)C)NC(=O)[C@H](CC(C)C)NC(=O)CN)[C@@H](C)CC)[C@@H](C)CC)[C@@H](C)O)[C@@H](C)O)C(C)C)C(=O)N[C@@H](CC(C)C)C(=O)N[C@@H](CC(=O)O)C(=O)N[C@@H](CC(N)=O)C(=O)N[C@@H](CC(C)C)C(=O)N[C@@H](CCCCN)C(=O)N[C@@H](CS)C(=O)N[C@@H](CCCCN)C(=O)N[C@@H](CC(C)C)C(=O)N[C@@H](C)C(=O)NCC(=O)NCC(=O)N[C@@H](CS)C(=O)N1CCC[C@H]1C(=O)N1CCC[C@H]1C(=O)O [Peptide P4_CCH] (H-GLLDIIKTTGKDFAVKILDNLKCKLAGGCPP-OH; N-terminus and C-terminus assumed) | 256 (≈ 78.9 µM) | 256 (≈ 78.9 µM) | 128 (≈ 39.5 µM) | 128 (≈ 39.5 µM) | >256 | >256 | >256 | 8 (≈ 2.47 µM) | >256 | >256 | 32 to 64 | 64 (≈ 19.7 µM) | 32 (≈ 9.87 µM) | 32 | 64 to 128 | 64 | 256 (≈ 78.9 µM) | – | – | – | – |
| ALVAKIQKFPVFNTLKLCKLELEII [Peptide P11_CCH] | >256 | >256 | >256 | >256 | >256 | >256 | >256 | >256 | >256 | >256 | – | – | – | – | – | – | 128 | 64 | 32 | – | – |
| CC[C@H](C)[C@H](NC(=O)[C@H](CCCCN)NC(=O)[C@@H](NC(=O)[C@H](C)NC(=O)[C@H](Cc1ccccc1)NC(=O)[C@H](CC(=O)O)NC(=O)[C@H](CCCCN)NC(=O)CNC(=O)[C@@H](NC(=O)[C@@H](NC(=O)[C@H](CCCCN)NC(=O)[C@@H](NC(=O)[C@@H](NC(=O)[C@H](CC(=O)O)NC(=O)[C@H](CC(C)C)NC(=O)[C@H](CC(C)C)NC(=O)CN)[C@@H](C)CC)[C@@H](C)CC)[C@@H](C)O)[C@@H](C)O)C(C)C)C(=O)N[C@@H](CC(C)C)C(=O)N[C@@H](CC(=O)O)C(=O)N[C@@H](CC(N)=O)C(=O)N[C@@H](CC(C)C)C(=O)N[C@@H](CCCCN)C(=O)N[C@@H](CS)C(=O)N[C@@H](CCCCN)C(=O)N[C@@H](CC(C)C)C(=O)N[C@@H](C)C(=O)NCC(=O)NCC(=O)N[C@@H](CS)C(=O)N1CCC[C@H]1C(=O)N[C@@H](CCCCN)C(=O)O [Peptide P4_CCH_P31K] (H-GLLDIIKTTGKDFAVKILDNLKCKLAGGCPK-OH; N-terminus and C-terminus assumed) | – | – | – | – | – | – | – | – | – | – | 16 to 32 | – | – | 16 to 32 | 32 to 64 | 32 | 128 (≈ 39.1 µM) | – | 256 (≈ 78.2 µM) | 32 (≈ 9.77 µM) | MIC [9]: 32 µg/mL (≈ 9.77 µM); MBC [12]: 256 µg/mL (≈ 78.2 µM); Minimum Inhibitory Concentration (MIC) ([10]; S. enterica spp. Heidelberg, Gram negative): 128+ ug/mL |
| ATAWMIPPRGMQPIIPIRIRPLCGKQ [P7_CCH_P9R_R5M] | – | – | – | – | – | – | – | – | – | – | – | 256 | 256 | – | – | – | – | 128 | – | 128 | MIC [6]: 256 µg/mL; MIC [8]: 256 µg/mL; MIC [9]: 128 µg/mL |
| CC[C@H](C)[C@H](NC(=O)[C@H](CCCCN)NC(=O)[C@H](CCC(=O)O)NC(=O)[C@H](CCCCN)NC(=O)[C@H](CO)NC(=O)[C@H](CCCCN)NC(=O)[C@H](CCCNC(=N)N)NC(=O)[C@H](Cc1ccccc1)NC(=O)[C@H](Cc1ccccc1)NC(=O)[C@H](CC(=O)O)NC(=O)CNC(=O)[C@H](CC(C)C)NC(=O)[C@@H](N)CC(C)C)C(=O)NCC(=O)N[C@@H](CCCCN)C(=O)N[C@@H](CCC(=O)O)C(=O)N[C@@H](Cc1ccccc1)C(=O)N[C@@H](CCCCN)C(=O)N[C@@H](CCCNC(=N)N)C(=O)N[C@H](C(=O)N[C@H](C(=O)N[C@@H](CCC(N)=O)C(=O)N[C@@H](CCCNC(=N)N)C(=O)N[C@H](C(=O)N[C@@H](CCCCN)C(=O)N[C@@H](CC(=O)O)C(=O)N[C@@H](Cc1ccccc1)C(=O)N[C@@H](CC(C)C)C(=O)N[C@@H](CCCNC(=N)N)C(=O)N[C@@H](CC(N)=O)C(=O)N[C@@H](CC(C)C)C(=O)N[C@H](C(=O)N1CCC[C@H]1C(=O)N[C@@H](CCCNC(=N)N)C(=O)N[C@H](C(=O)N[C@@H](CCC(=O)O)C(=O)N[C@@H](CO)C(=O)O)[C@@H](C)O)C(C)C)[C@@H](C)CC)C(C)C)[C@@H](C)CC [LL-37, reference compound] | – | – | – | – | – | – | – | – | – | – | – | – | – | – | – | – | – | – | – | – | Minimum Inhibitory Concentration (MIC) ([11]; S. aureus ATCC 29213, Gram positive): 128+ ug/mL; Minimum Inhibitory Concentration (MIC) ([12]; S. enterica spp. Enteritidis, Gram negative): 64+ ug/mL |
| FFPRVLPLANKFLPTIYCALPKSVGN [Peptide P2_CCH] | >256 | >256 | – | – | >256 | >256 | – | 16 | >256 | >256 | 16 | – | – | 16 to 32 | 16 | 16 | 128 | – | 64 | – | MBC [12]: 64 µg/mL; Minimum Inhibitory Concentration (MIC) [12]: 64 µg/mL; MBC [10]: 128 µg/mL; Minimum Inhibitory Concentration (MIC) [10]: 128 µg/mL |
